According to US9120789B2, “1-(5-tert-butyl-2-phenyl-2H-pyrazol-3-yl)-3-[2-fluoro-4-(1-methyl-2-oxo-2,3-dihydro-1H-imidazo[4,5-b]pyridin-7-yloxy)-phenyl]-urea and related compounds and their use in therapy” (CANCER RESEARCH TECHNOLOGY LIMITED, priority 2010, dated 2015):

Experiments:
B-RAF = B-RAF (Homo sapiens, UniProt P15056); assay: Assay A - DELFIA kinase assay; format: biochemical; conditions: 100 μM ATP; mean of usually three assays; read-out: Assay A BRAF IC50
Procedure: Biological Methods—Assay A—DELFIA Kinase Assay
Compounds were assessed by a kinase assay performed according to the following protocol.
The following reagents were prepared:
DELFIA Kinase Buffer (DKB):
DKB1 (DKB with B-RAF and MEK Protein):
Combine 4950 μL of DKB and 50 μL of 2.5 mg/mL GST-MEK stock (to give 1 mg of MEK per 40 μL). Then add 22.5 μL of B-RAF to give ˜0.2 μL of B-RAF per 40 μL.
DKB2 (DKB with MEK Protein):
Combine 4950 μL of DKB and 50 μL of 2.5 mg/mL GST-MEK stock (to give […] of MEK per 40 μL). Use 500 μL of this for the blow out (BO) and the empty vector (EV) control.
100 mM stock, dilute to 500 μM to give 100 μM final concentration in assay.
Inhibitors (Test Compounds):
Phospho-MEK1/2 CST #9121S diluted 1:1000 in DELFIA assay buffer (AB). Pre-incubate antibody in the AB for 30 minutes at room temperature prior to use.
Anti-rabbit-Eur labelled secondary Perkin Elmer #AD0105 diluted 1:1000 in DELFIA assay buffer (AB). Pre-incubate antibody in the AB for 30 minutes at room temperature prior to use. (Primary and secondary antibodies were incubated together.)
DELFIA assay buffer Perkin Elmer #4002-0010.
DELFIA enhancement solution Perkin Elmer #4001-0010.
96 well glutathione-coated black plate Perbio #15340.
1. Preblock wells with 5% milk in TBS for 1 hour.
2. Wash wells 3× with 200 μL TBS.
3. Plate out 40 μL of DKB1 for all inhibitors (test compounds), DMSO control, and optionally other control compounds.
4. Plate out 40 μL of DKB2 for BO and EV wells.
5. Add inhibitors (test compounds) at 0.5 μL per well according to desired plate layout.
6. Add 0.5 μL DMSO to vehicle control wells.
7. Add 2 μL of B-RAF to BO and EV wells.
8. Pre-incubate with inhibitors (test compounds) for 10 minutes at room temperature with shaking.
9. Add 10 μL of 500 μM ATP stock, in DKB, to give 100 μM assay concentration.
10. Seal plates with TopSeal and incubate at room temperature with shaking for 45 minutes.
11. Wash plates 3× with 200 μL 0.1% Tween20/Water to terminate reaction.
12. Add 50 μL per well of antibody mix and incubate for 1 hour at room temperature with shaking.
13. Wash plates 3× with 200 μL 0.1% Tween20/Water.
14. Add 100 μL DELFIA enhancement solution per well, cover in foil, and incubate at room temperature for 30 minutes with shaking.
15. Read on Victor using Europium protocol.
(§1) Values for the blank (Empty Vector) are subtracted from all values. The DMSO controls are set as 100% activity and assay points (the response) are calculated as a percentage of the DMSO control. Data are plotted using Graphpad Prism software and a non-linear regression line is calculated using a variable slope sigmoidal dose-response equation: Y=Bottom+[Top−Bottom]/[1+10^((Log EC50−X)*HillSlope)] where X is the logarithm of concentration and Y is the response. The IC50 generated by this procedure is the concentration of the drug that produces a percentage control fluorescence value midway between the saturation, and zero-effect plateaus. Three independent assays are usually performed and the mean IC50 is reported. Biological Methods—Assay B—Cell Based Phosho-ERK Assay

[1] = tested on: WM266.4 melanoma cell line (mutant BRAF); assay: Assay C - SRB cell proliferation assay, WM266.4; format: cell-based; conditions: Homo sapiens, WM 266-4, 120 h; WM266.4, 5 days growth
Procedure: as §1, with “blank (no cells)” for “blank (Empty Vector)”, “the response).” for “the response.”, “Methods—Assay C—SRB Cell Proliferation” for “Methods—Assay B—Cell Based Phosho-ERK”, “Assay (SRB GI50)” for “Assay”
(§2) Cell lines (e.g., WM266.4 and A375M melanoma cell lines; SW620 colorectal carcinoma cell line) are routinely cultured in DMEM or RPMI1640 supplemented with 10% foetal bovine serum, at 37° C., in 10% CO2 water saturated atmosphere. Cultures are maintained in exponential growth phase by sub-culturing before having become confluent (3-5 day intervals). Single cell suspensions are prepared by harvesting an 80 cm^2 tissue culture flask with 5 mL commercial trypsin EDTA. After 5 minutes, the detached cells are mixed with 5 mL fully complemented culture medium and centrifugally pelleted (1000 rpm for 7 minutes). After aspirating the supernatant, the cell pellet is re-suspended in 10 mL fresh medium and the cells fully disaggregated by drawing the whole volume up/down 5 times through a 19-gauge needle. The concentration of the cells is determined using a haemocytometer ( 1/10 dilution). A suitable volume to give at least a 2-fold excess for the number of tests being conducted, typically 100-200 mL, is prepared by diluting the cell suspension to 10,000-40,000/mL, and 100 μL/well dispensed into 96 well plates using a programmable 8-channel peristaltic pump, giving 1000-4000 cells/well, leaving column 12 blank. The plates are returned to the incubator for 24 hours to allow the cells to re-attach.
(§3) The compounds being tested are prepared at 10 mM in DMSO. Aliquots (24 μL) are diluted into 1.2 mL culture medium giving 200 μM, and 10 serial dilutions of 3× performed by transferring 80 μL to 160 μL. Aliquots (100 μL) of each dilution are added to the wells, using an 8-channel pipettor, thus performing a final further 2× dilution, and giving doses ranging from 100 μM to 0.005 μM. Column 11 receives plain culture medium only. Each compound is tested in quadruplicate, each replicate being the average of four wells.
(§4) After a further 5 days growth, the plates are emptied, and the cells are fixed in 10% trichloroacteic acid for 30 minutes at 4° C. After thorough rinsing in running tap water, the plates are dried, and stained by adding 50 μL of a solution of 0.1% sulphorhodamine-B in 1% acetic acid, for 10 minutes at room temperature. The stain is poured out and the plates thoroughly rinsed under a stream of 1% acetic acid, thus removing unbound stain, and dried. The bound stain is taken into solution by addition of 100 μL Tris buffer pH 8, followed by 10 minutes on a plate-shaker (approximately 500 rpm). The absorbance at 540 nm in each well (being proportional to the number of cells present) is determined using a plate reader.
(§5) After averaging the blank values in column 12 this was subtracted from all values, and results expressed as a percentage of the untreated value (column 11). […] The GI50 generated by this procedure is the concentration of the drug that produces a percentage control A540 midway between the saturation, and zero-effect plateaus.

[2] = tested on: SW620 colorectal carcinoma cell line (mutant RAS); assay: Assay C - SRB cell proliferation assay, SW620; format: cell-based; conditions: Homo sapiens, SW-620, 120 h; SW620, 5 days growth
Procedure: as §1, with “blank (no cells)” for “blank (Empty Vector)”, “the response).” for “the response.”, “Methods—Assay C—SRB Cell Proliferation” for “Methods—Assay B—Cell Based Phosho-ERK”, “Assay (SRB GI50)” for “Assay”
as §2, §3, §4, §5

B-RAF, sequence (P15056 whole entry): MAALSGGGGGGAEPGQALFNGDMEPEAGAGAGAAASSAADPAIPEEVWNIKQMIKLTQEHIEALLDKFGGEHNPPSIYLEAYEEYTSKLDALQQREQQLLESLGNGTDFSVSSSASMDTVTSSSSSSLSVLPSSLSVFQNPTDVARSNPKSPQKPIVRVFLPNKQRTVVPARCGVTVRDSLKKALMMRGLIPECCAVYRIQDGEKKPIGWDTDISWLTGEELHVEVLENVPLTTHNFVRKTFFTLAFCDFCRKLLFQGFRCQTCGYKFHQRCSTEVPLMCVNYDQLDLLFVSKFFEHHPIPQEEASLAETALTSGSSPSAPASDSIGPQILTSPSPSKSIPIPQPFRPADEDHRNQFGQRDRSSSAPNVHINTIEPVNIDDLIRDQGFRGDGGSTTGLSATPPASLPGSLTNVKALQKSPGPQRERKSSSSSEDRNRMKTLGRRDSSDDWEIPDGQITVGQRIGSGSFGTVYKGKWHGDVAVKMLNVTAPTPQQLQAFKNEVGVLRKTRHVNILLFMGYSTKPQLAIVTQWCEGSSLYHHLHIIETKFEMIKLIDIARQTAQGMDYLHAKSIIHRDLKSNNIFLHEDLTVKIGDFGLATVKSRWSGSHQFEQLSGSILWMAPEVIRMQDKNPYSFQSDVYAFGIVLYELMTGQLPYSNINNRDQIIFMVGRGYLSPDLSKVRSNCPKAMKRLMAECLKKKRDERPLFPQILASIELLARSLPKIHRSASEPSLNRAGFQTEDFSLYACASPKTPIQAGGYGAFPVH

| Compound | IC50 (B-RAF) [nM] | GI50 [1] [nM] | GI50 [2] [nM] |
| --- | --- | --- | --- |
| Cn1c(=O)[nH]c2nccc(Oc3ccc(NC(=O)Nc4cc(C(C)(C)C)nn4-c4ccccc4)c(F)c3)c21 [AA-01, 1-(3-Tert-butyl-1-phenyl-1H-pyrazol-5-yl)-3-(2-fluoro-4-(1-N-methyl-2-oxo-2,3-dihydro-1H-imidazo[4,5-b]pyridin-7-yloxy)phenyl)urea] | 270 | 52 | 167 |
| Cn1c(=O)[nH]c2nccc(Oc3ccc(NC(=O)Nc4cc(C(C)(C)C)nn4-c4ccccc4)c4ccccc34)c21 [BB-01, 1-(3-Tert-butyl-1-phenyl-1H-pyrazol-5-yl)-3-(4-(1-methyl-2-oxo-2,3-dihydro-1H-imidazo[4,5-b]pyridin-7-yloxy)naphthalen-1-yl)urea] | 250 | 8 | 1600 |
| Cc1ccc(-n2nc(C(C)(C)C)cc2NC(=O)Nc2ccc(Oc3ccnc4[nH]c(=O)n(C)c34)c3ccccc23)cc1 [BB-02, 1-(1-N-p-tolyl-3-tert-butyl-pyrazol-5-yl)-3-(4-(2-oxo-2,3-dihydro-1-N-methyl-1H-imidazo[4,5-b]pyridin-7-yl-oxy)naphthalen-1-yl)urea] | 2280 | 16 | 1680 |

Now from value to compound:

| IC50 (B-RAF) [nM] | GI50 [1] [nM] | GI50 [2] [nM] | Compound |
| --- | --- | --- | --- |
| 94 | 390 | 840 | CC(C)(C)c1cc(NC(=O)Nc2ccc(Oc3ccnc4[nH]c(=O)[nH]c34)cc2)n(-c2ccccc2)n1 [XX-01, 1-(5-Tert-butyl-2-phenyl-2H-pyrazol-3-yl)-3-[4-(2-oxo-2,3-dihydro-1H-imidazo[4,5-b]pyridin-7-yloxy)-phenyl]-urea] |
| 200 | 66 | 450 | Cc1ccc(-n2nc(C(C)(C)C)cc2NC(=O)Nc2ccc(Oc3ccnc4[nH]c(=O)n(C)c34)cc2)cc1 [XX-02, 1-(1-N-p-tolyl-3-tert-butyl-pyrazol-5-yl)-3-(4-(2-oxo-2,3-dihydro-1-N-methyl-1H-imidazo[4,5-b]pyridin-7-yl-oxy)phenyl)urea] |
| 1090 | 33 | 6830 | Cn1c(=O)n(C)c2c(Oc3ccc(NC(=O)Nc4cc(C(C)(C)C)nn4-c4ccccc4)c(F)c3)ccnc21 [XX-03, 1-(3-Tert-butyl-1-phenyl-1H-pyrazol-5-yl)-3-(4-(1,3-dimethyl-2-oxo-2,3-dihydro-1H-imidazo[4,5-b]pyridin-7-yloxy)-2-fluorophenyl)urea] |
| 240 | 20 | 2720 | CC(C)(C)c1cc(NC(=O)Nc2ccc(Oc3ccnc4[nH]c(=O)[nH]c34)cc2)n(-c2ccc(F)cc2)n1 [XX-04, 1-[5-tert-Butyl-2-(4-fluoro-phenyl)-2H-pyrazol-3-yl]-3-[4-(2-oxo-2,3-dihydro-1H-imidazo[4,5-b]pyridin-7-yloxy)-phenyl]urea] |
